Assay results: patent US12048714B2, “Products and methods for organ protection with noble nanoparticles” (UCHICAGO ARGONNE, LLC, priority 2020, dated 2024)
Entries after “also recorded” stand apart in the source; their conditions may differ.

Experiments:
[1] = Ex situ reduction of gold precursors by NADH to Au NPs, monitored by UV-vis spectra; settings: for formation of Au NPs / reduction to Au0 when mixed with NADH: gold precursor mixed with NADH, ex situ
Description: Gold (III) chloride (AuCl3) and cofactors, NADH, NADPH and ATP, were purchased from Sigma/Aldrich (St. Louis, MO). Paraformaldehyde/glutaraldehyde fixative solution was purchased from Electron Microscopy Sciences (Hatfield, PA). Gold NPS were formed through reduction of the AuCl3 by cofactors. Briefly, 100 μM NADH solution in PBS, pH 7.4, was placed in a cuvette and mixed with aliquots of AuCl3 in the same buffer to achieve 4:1, 2:1, and equimolar NADH/precursor ratios, at room temperature under constant stirring. Oxidation of NADH and formation of Au NPs were recorded at 340 nm and 520 nm, respectively, by UV-vis spectra using CARY-50 spectrophotometer.
AuCl3 was chosen as a precursor due to higher electron sinking capacity of Au (III) and higher stability as compared to Au(I) that can transform in vivo into Au(III) (Thakor et al., Nano Lett, 2011, 11: 4029-4036).

[2] = tested on: living acute brain sections; experiment: In-situ gold nanoparticle biosynthesis in hypoxic living acute brain sections (staining, SAXS/WAXS, TEM); format: cell-based, mice C57BL/6J
Description: All animal procedures and the brain slice preparation procedures were performed in accordance with the Institutional Animal Care and Use Committee at the University of Chicago. Experimental mice C57BL/6J (male, 17 days old, n=2) were anesthetized by intraperitoneal injection of ketamine-xylazine, decapitated, and had their brains quickly removed. The brains were placed to the ice-cold “cut” artificial cerebrospinal fluid (ACSF) solution (containing the following, in mM: 3 KCl, 26 NaHCO3, 1 NaH2PO4, 0.5 CaCl2), 3.5 MgSO4, 25 dextrose, 123 sucrose) for quick, less than 5 min, slicing on vibratome at a thickness of 450 μm. The sections then were placed into an oxygenated incubation ACSF solution (containing the following, in mM: 123 NaCl, 3 KCl, 26 NaHCO3, 1 NaH2PO4, 2 CaCl2), 6 MgSO4, 25 dextrose) for 40 min, maintained at 32-36° C. (Sadovsky et al., J Neurosci, 2013, 33:14048-676). Tissue was left to rest at room temperature for 30 min before hypoxic induction. Hypoxia was induced in brain slices (i.e., living acute brain sections) in an oxygen-deprived chamber for 5 min, while their opposite hemisphere counterparts were used as normally oxygenated controls.
Three aliquots of aqueous AuCl3 were added to oxygen-deprived and oxygenated (control) brain slices to reach 100 μM-10 mM final concentrations of the precursor, incubated for 5 min, thoroughly rinsed (to ensure removal of precursor excess), and fixed using 2% glutaraldehyde+2% paraformaldehyde in 0.1M phosphate buffer, pH 7.4, and then stored in the same fixing solution at +5° C. before imaging and analyses.
Before the beam experiment, brain slices were removed from the ACSF solution, and mounted by sealing them between two thin glass cover slides (Fisherfinest). In situ small-angle X-ray scattering (SAXS) and wide angle X-ray scattering (WAXS) (SAXS/WAXS) measurements were carried out at beamline 12-ID-B of the Advanced Photon Source (APS), Argonne National Laboratory. In situ SAXS data were analyzed by custom-built software that is run on Matlab after standard data correction including background correction.
To isolate Au NPs, fixed brain slices were freeze-dried and mechanically grinded down. Then the NPs were extracted by DI water followed by separation of the biological debris via centrifugation (2000 rpm for 10 min). The NPs-containing supernatant were dropped onto an Ultrathin Carbon Cu transmission electron microscopy (TEM) grid with the Formvar pre-removed in toluene. Samples were allowed to set for about 1 hour and then rinsed by DI water. TEM analysis of the NPs was performed with a JEM-2100F field emission electron microscope (JEOL LTD, Tokyo, Japan) operated at 200 kV.
Coronal 450 μm thick sections of the mouse brain were isolated and prepared by a technique that allows maintaining the integrity of the isolated brain functions for sufficient experimental time-lapse, as depicted in FIGS. 4A-D. (See Sadovsky et al., J Neurosci, 2013, 33: 14048-U14676). The prepared living brain slices were incubated in a chamber with oxygenated ACSF solution (containing the following, in mM: 123 NaCl, 3 KCl, 26 NaHCO3, 1 NaH2PO4, 2 CaCl2), 6 MgSO4, 25 dextrose) for 40 min, maintained at 32-36° C. (Sadovsky et al., J Neurosci, 2013, 33: 14048-14676). Tissue was left to rest at room temperature for 30 min before hypoxic induction. Hypoxia was induced in brain slices in an oxygen-deprived chamber for 5 min, while their opposite hemisphere counterparts were used as normally oxygenated controls. […]

[Cl][Au] [AuCl, gold monochloride]
formation of Au NPs / reduction to Au0 when mixed with NADH [1]: reduced by NADH to Au^0

CC(=O)OC[C@H]1O[C@@H]([S-])[C@H](OC(C)=O)[C@@H](OC(C)=O)[C@@H]1OC(C)=O.CCP(CC)CC.[Au+] [auranofin, reference compound]
formation of Au NPs / reduction to Au0 when mixed with NADH [1]: yielded no Au NPs

O=C([O-])CC([S-])C(=O)[O-].[Au+].[Na+].[Na+] (stereo not drawn) [myochrysine, reference compound]
formation of Au NPs / reduction to Au0 when mixed with NADH [1]: yielded no Au NPs

OC[C@H]1O[C@H]([S-])[C@H](O)[C@@H](O)[C@@H]1O.[Au+] [solganal, reference compound]
formation of Au NPs / reduction to Au0 when mixed with NADH [1]: yielded no Au NPs

Gold (III) chloride [AuCl3]
staining indicative of Au NPs in brain slices ([2]; hypoxic slices, 100 μM precursor, 5 min incubation): revealed staining localized mainly in the outer regions of the brain section; also recorded: pink staining mainly in the outer regions of the brain section
formation of Au NPs / staining in brain slices ([2]; hypoxic slices, 10 mM precursor): significant dark staining
formation of Au NPs / staining in brain slices ([2]; hypoxic slices, 10 mM precursor, listed as Au(III) precursor): formation of Au NPs took place only in hypoxic brain slices
formation of Au NPs / staining in brain slices ([2]; oxygenated (control) brain slices exposed to precursor): preserves its natural color
formation of Au NPs / staining in brain slices ([2]; oxygenated (control) brain slices exposed to precursor, listed as Au(III) precursor): No Au NPs were detected
time of reaction after which pink color was detected by the naked eye ([1]; AuCl3/NADH molar ratio 1:4): 20 min
time to appearance of new peak at 520 nm characteristic for Au NPs ([1]; AuCl3/NADH molar ratio 1:4): ~7 min
oxidation of NADH (peak at 340 nm) ([1]; AuCl3/NADH molar ratio 1:4, NADH aqueous solution, UV-vis): immediate drop of the intensity of peak at 340 nm
